These compounds were tested against gelatinase (assay: MMP particle concentration fluorescence assay, gelatinase). Conditions: in vitro; 15 min preincubation, 1-3 hours with substrate at room temperature, pH 7.5.
Type: biochemical
Description: Inhibitory activity is evaluated in one or more of the MMP enzymes (stromelysin, gelatinase, and collagenase) in vitro using particle concentration fluorescence assay. An inhibitor binds to MMP enzymes which prevents the degradation of a substrate by stromelysin, gelatinase, or collagenase. The substrate has attached to it a fluorescein and a biotin moiety. The intact substrate then binds to an avidin-coated particle via the biotin moiety. Once the particle is washed and dried, a fluorescent signal is generated since the fluorescent group is attached to the particle. Without an inhibitor present, the substrate is degraded by MMP enzymes and the fluorescein group is removed, therefore, no fluorescent signal can be detected. Testing compounds are dissolved in DMSO to the desired concentration, then the solutions are diluted to 1:5 with MMP buffer (50 mM Tris-HCl, pH 7.5; 150 mM NaCl; 0.02% NaN3). Serial two-fold dilutions of each compound are prepared. A concentrated, activated enzyme solution is transferred into each plate of the testing compounds, and the mixture is incubated at room temperature for 15 minutes. Thawed MMP substrate is then added into all plates, and the plates are incubated in the dark for 1-3 hours at room temperature. At this point, the substrate mixture is mixed with 0.1% avidin-coated polystyrene particles. After 15 minutes, the fluorescence values are measured following filtration and washing of the beads. Ki values are then calculated.

Going from `COc1ccc(S(=O)(=O)CC(O)(CS(=O)(=O)c2ccc(-c3ccccc3)cc2)C(=O)NO)cc1` (racemic) [Example 1, N-hydroxy-2-hydroxy-2-[(4-methoxybenzenesulfonyl)methyl]-3-(4-phenylbenzenesulfonyl)-propionamide] to `COc1ccc(S(=O)(=O)CC(O)(CS(=O)(=O)c2ccc(F)cc2)C(=O)NO)cc1` (stereo not drawn) [Example 2, N-hydroxy-2-hydroxy-2-[(4-methoxybenzenesulfonyl)methyl]-3-(4-fluorobenzenesulfonyl)-propionamide], the Ki rises from 1.9 nM to 31 nM (16-fold).

`COc1ccc(S(=O)(=O)CC(O)(CS(=O)(=O)c2ccc(-c3ccccc3)cc2)C(=O)NO)cc1` (single isomer, unassigned) [1, Enantiomer A] and `COc1ccc(S(=O)(=O)CC(O)(CS(=O)(=O)c2ccc(OC)cc2)C(=O)NO)cc1` [Example 4, N-hydroxy-2-hydroxy-2-[(4-methoxybenzenesulfonyl)methyl]-3-(4-methoxybenzenesulfonyl)-propionamide] are within 1.5-fold of each other in Ki: 8.5 nM for the first, 7.5 nM for the second.

First: COc1ccc(S(=O)(=O)CC(O)(CS(=O)(=O)c2ccc(-c3ccccc3)cc2)C(=O)NO)cc1 (single isomer, unassigned) [1, Enantiomer B]
Second: CCCCc1ccc(S(=O)(=O)CC(O)(CS(=O)(=O)c2ccc(OC)cc2)C(=O)NO)cc1 (stereo not drawn) [Example 3, N-hydroxy-2-hydroxy-2-[(4-methoxybenzenesulfonyl)methyl]-3-(4-n-butylbenzenesulfonyl)-propionamide]
The Ki of the first is 38-fold lower: 0.34 nM for the first, 13 nM for the second. The first binds more tightly here.

`COc1ccc(S(=O)(=O)CC(O)(CNC(=O)c2ccccc2)C(=O)NO)cc1` (stereo not drawn) [Example 5, N-hydroxy-2-hydroxy-2-[(4-methoxybenzenesulfonyl)methyl]-3-(N-benzenecarbonylamino)-propionamide] and `COc1ccc(C(=O)NCC(O)(CS(=O)(=O)c2ccc(OC)cc2)C(=O)NO)cc1` (stereo not drawn) [Example 7, N-hydroxy-2-hydroxy-2-[(4-methoxybenzenesulfonyl)methyl]-3-(N-(4-methoxybenzenecarbonyl)amino)-propionamide] are within 1.5-fold of each other in Ki: 23 nM for the first, 17 nM for the second.

With `COc1ccc(S(=O)(=O)CC(O)(CNC(=O)C2CCCC2)C(=O)NO)cc1` (stereo not drawn) [Example 6, N-hydroxy-2-hydroxy-2-[(4-methoxybenzenesulfonyl)methyl]-3-[N-(cyclopentylcarbonyl)amino]-propionamide] the Ki was 70 nM.

From patent US20030166687A1, “ALPHA-HYDROXY,-AMINO AND -FLUORO DERIVATIVES OF BETA-SULPHONYL HYDROXAMIC ACIDS AS MATRIX METALLOPROTEINASES INHIBITORS” (priority 2000, published 2003)
